In patent US7594984B2, “Apparatus and method for measuring activity signals of biological samples” (Panasonic Corporation, priority 2002, dated 2009):

Legend:
[1] = test system: nerve cells prepared from lymnaea; test: Extracellular recording of nerve cell electrical signals at a series of Carbachol concentrations; mean value of standard deviations; type: cell-based; details: concentrations 0-100, SD sampled every 100 ms from 10-second data, FIG. 10
Excerpt: FIG. 9 is a block diagram schematically illustrating a configuration of the apparatus for measuring the activity signals of biological samples according to Embodiment 3. The apparatus employs the apparatus of Embodiment 1 as a measurement unit (a signal source) 101, and has a function for processing electrical signals detected by the measurement unit 101. As shown in FIG. 9(A), the apparatus is provided with a group SD (standard deviation) calculation unit 102, a mean value calculation unit 105, an activation evaluation unit 120 and a data display unit 110. According to the group SD calculation unit 102, the standard deviation of one group consisting of a predetermined number of samples is calculated on the basis of time-series data detected by the measurement unit 101. […] According to the mean value calculation unit 105, the mean value of the obtained plurality of standard deviations is calculated. […] Therefore, according to the activation calculation unit 120, activation can be calculated based on the input information and can be classified by comparison with pre-stored information. […] According to the apparatus, noise can be removed from digital signals (predetermined time-series data) captured at a fixed sampling rate, and then significant signals showing, for example, the opening and closing of ion channels can be extracted, measured and classified. […]

[2] = test system: nerve cells prepared from lymnaea; test: Extracellular recording before and after Carbachol administration; normal distribution of standard deviations (mean value, half-width); type: cell-based; details: 50-μM Carbachol
Excerpt: The normal distribution approximation unit 103 classifies a plurality of standard deviations obtained in the group SD calculation unit 102 into a plurality of classes set at predetermined widths. The classes are plotted on the X axis and the number of standard deviations classified into each class is plotted on the Y axis, to obtain a graph. The graph obtained is approximated to a normal distribution. Methods for approximating the graph to a normal distribution include, for example, various curve fitting analyses, such as exponential decrease, exponential increase, Gaussian, Lorentzian, Sigma, Multipeak and non-linear methods. The mean value/half-width calculation unit 106 calculates the mean value and half-width (the half-peak height width) of the normal distribution obtained.
The apparatus of the present embodiment thus configured was used to measure how the chemical substance Carbachol acts on nerve cells prepared from lymnaea. More specifically, the normal distribution approximation unit 103 produced a frequency distribution of the standard deviations on the basis of signals that were detected by the measurement unit 101 before and after Carbachol was administered to lymnaea nerve cells at 50-μM concentration. […]

SMILES: C[N+](C)(C)CCOC(N)=O [Carbachol]
- Carbachol concentration at which the mean value of the standard deviations reaches its peak [1]: 10 µM
- effect on ion channels of the nerve cells ([2]; lymnaea nerve cells): activates the ion channels
- mean value of the normal distribution of standard deviations after administration ([2]; SD every 5 ms from 10-second signals, before administration 0.478, FIG. 12): 0.703
